Data: patent US7381428B2, “Stabilized lanthanum carbonate compositions” (Shire International Licensing B.V., priority 2003, dated 2008)

Columns and labels:
Format in all cases: physicochemical
[1] = Degradation to lanthanum hydroxycarbonate at room temperature / standard ambient conditions
[2] = Thermal and moisture stress study of lanthanum carbonate/excipient mixtures, decarboxylation to lanthanum hydroxycarbonate (HC) monitored by XRPD
Protocol: Excipient compatibility studies of hydrated lanthanum carbonate having a water content approximately equivalent to 4-5 moles of water and anhydrous lanthanum carbonate were performed to determine whether different classes of saccharide excipients would retard or prevent the appearance of decarboxylation products in thermally- and moisture-stressed solid lanthanum carbonate mixtures.
Conditions which would cause the formation of decarboxylation products in substantially pure hydrated lanthanum carbonate within one week were used. Mixtures of 1:1 or 96:4 (by weight) of hydrated lanthanum carbonate and a test excipient or 1:1 (by weight) anhydrous lanthanum carbonate and a test excipient were prepared and stressed, and samples were analyzed by XRPD (X-ray powder diffraction) as a function of exposure time.
Weighed samples of hydrated lanthanum carbonate/excipient (1:1 or 96:4 by weight) or anhydrous lanthanum carbonate/excipient (1:1 by weight) were sealed into scintillation vials and placed onto a Turbula mixer. Samples were mixed for ten minutes to ensure sample homogeneity.
Saturated salt solutions of Na2SO4.10H2O (˜95% RH (relative humidity)) or NaNO3 (65% RH) were prepared and placed into sealed chambers. The chambers were placed into a 60° C. oven overnight and the presence of solids was confirmed after 24 hours. These chambers were then subsequently used for the stressing studies of the various excipient/lanthanum carbonate mixtures. The lower humidity conditions were utilized for the D-sorbitol and dextrates excipients because they deliquesce under the more extreme conditions of 60° C./95% RH.
XRPD analyses were performed using a Shimadzu XRD-6000 X-ray powder diffractometer using Cu Kα radiation. […]
At the experimental onset, the hydrated lanthanum carbonate was stressed under two conditions, 60° C./95% RH and 60° C./65% RH, in order to establish a baseline for monitoring decarboxylation. Individual samples were pulled after 1, 2, 3, 4, and 7 days and immediately analyzed by XRPD. […]

[3] = Decarboxylation of hydrated lanthanum carbonate at standard ICH stability conditions, lanthanum hydroxycarbonate content by XRPD; conditions: 25° C./60% RH, 30° C./60% RH and 40° C./75% RH, up to 2 years
Protocol: Unformulated hydrated lanthanum carbonate and formulated hydrated lanthanum carbonate tablets containing approximately 50% (by weight) dextrates were exposed to the standard ICH stability conditions of 25° C./60% RH, 30° C./60% RH and 40° C./75% RH for a period up to 2 years. Samples were removed periodically over this time and tested for their lanthanum hydroxycarbonate content using x-ray powder diffraction.

time within which degradation to lanthanum hydroxycarbonate occurs [1] | time after which decarboxylation product HC was initially seen (XRPD) ([2]; 60° C./95% RH) | time after which decarboxylation product HC was initially seen (XRPD) ([2]; 60° C./65% RH) | degradation (decarboxylation) to lanthanum hydroxycarbonate [3] | Compound
9-12 months | 1 days | – | – | O=C([O-])[O-].O=C([O-])[O-].O=C([O-])[O-].[La+3].[La+3] [substantially pure lanthanum carbonate, La2(CO3)3.xH2O]
– | one | single | significant degradation | hydrated lanthanum carbonate
